Measured values from US20240000795A1, “METHODS AND COMPOSITIONS RELATING TO CONTROLLING PSYCHEDELIC EFFECTS WITH SEROTONIN RECEPTOR MODULATORS” (Terran Biosciences Inc., priority 2022, published 2024).
“Also recorded” adds a separate entry of the source.

What was measured:
[1] = background; compared with a therapy session of up to several hours; cited from earlier work
[2] = biological target: T1, 5-HT2A receptors (Mus musculus, UniProt P35363); assay: Psilocybin-induced head twitch response in mice, 5-HT2A antagonist given i.v. after psilocybin; assay type: in vivo, C57BL/6J mice; set-up: widely used to explore the effect of treatments on 5-HT2A receptors in vivo; from tissue; host or cells: whole living male C57BL/6J mice (behavioural read-out); settings: for head-twitch response (cumulative head-twitches): psilocybin 2 mg/kg i.p., monitored until 40 min after agonist dosing; for Result (Psilocybin Combinations tested, summary): summary of Examples 1-17
T1 sequence (P35363 whole entry): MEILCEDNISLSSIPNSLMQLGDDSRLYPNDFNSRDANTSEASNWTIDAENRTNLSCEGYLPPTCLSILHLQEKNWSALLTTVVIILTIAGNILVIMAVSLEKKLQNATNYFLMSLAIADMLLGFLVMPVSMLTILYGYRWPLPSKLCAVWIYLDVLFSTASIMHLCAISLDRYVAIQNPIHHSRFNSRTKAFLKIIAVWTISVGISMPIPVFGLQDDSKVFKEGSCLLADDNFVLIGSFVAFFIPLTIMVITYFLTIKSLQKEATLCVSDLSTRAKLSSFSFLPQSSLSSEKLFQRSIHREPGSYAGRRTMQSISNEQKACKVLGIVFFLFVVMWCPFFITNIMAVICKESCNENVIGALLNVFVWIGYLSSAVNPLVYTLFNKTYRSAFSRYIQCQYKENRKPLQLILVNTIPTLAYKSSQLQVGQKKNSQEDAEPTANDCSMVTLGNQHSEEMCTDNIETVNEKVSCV
Excerpt: (§1) See, Keller and Umbreit, Science, 1956, 124: 723). […] The head-shake response is elicited by a wide variety of known hallucinogens such as LSD, psilocybin, psilocin, N,N-dimethyltryptamine (DMT), and mescaline as well as serotonin-releasing agents and direct 5-HT2 agonists. See, Canal and Morgan, Drug Test Anal., 2012, 4, 556-576 2012. 2,5-dimethoxy-4-iodoamphetamine (DOI) has also been reported to elicit head shakes in rats (see Amt and Hyttel Eur. J. Pharmacol., 1989, 161:45; also see Kennett et al., Br. J. Pharmacol., 1994, 111: 797-802) and head-twitches in mice (see Darmani et al., Pharmacol. Biochem. Behav., 1990, 36: […]), both of which were blocked by administration of the fairly selective 5-HT2A antagonist ketanserin. Later studies have confirmed 5-HT2A receptors are the primary, direct mediators of the response and that the headshake response in rats is essentially the same as head-twitches in mice, at least in regards to similarity in appearance and 5-HT2A receptor dependence. See, Canal and Morgan, Drug Test Anal., 2012, 4, 556-576 2012.
Male C57BL/6J mice (approximately 25 g) was group housed in stock room B20D of the Saretius animal at the University of Reading. Animals was maintained under a 12 h light/dark cycle, at 23° C. with humidity controlled
(§2) At T=−60 min, C57BL/6J mice were individually housed into transparent observation cages with bedding removed and left to habituate. At T=−3 min, mice were placed into heated cages at 40° C. At T=0 h, groups of 3 mice were dosed intraperitoneally with psilocybin (2 mg/kg). Following dosing, mice were replaced into the heated cages and head-twitch responses continuously scored for 7 min. After 7 min, mice were intravenously dosed via the lateral tail vein with either vehicle 1 (saline) or volinanserin 1 mg/kg in 5 mL/kg dosing volumes. Mice were replaced into the observation cages and head twitch behavior were monitored until 40 min after agonist dosing. Cumulative head-twitches were measured every 2 minutes until 40 minutes after agonist dosing.
as §2, with “min. […]” for “min. After 7 min, mice were intravenously dosed via the lateral tail vein with either vehicle 1 (saline) or volinanserin 1 mg/kg in 5 mL/kg dosing volumes.”, “behavior was” for “behavior were”, “Cumulative head-twitch behavior was” for “Cumulative head-twitches were”
as §2, with “min. […]” for “min. After 7 min, mice were intravenously dosed via the lateral tail vein with either vehicle 1 (saline) or volinanserin 1 mg/kg in 5 mL/kg dosing volumes.”, “behavior was” for “behavior were”, “Cumulative head-twitch behavior was” for “Cumulative head-twitches were”
as §2, with “min. […]” for “min. After 7 min, mice were intravenously dosed via the lateral tail vein with either vehicle 1 (saline) or volinanserin 1 mg/kg in 5 mL/kg dosing volumes.”, “behavior was” for “behavior were”, “Cumulative head-twitch behavior was” for “Cumulative head-twitches were”

[3] = biological target: T1, 5-HT2A receptors; assay: LSD-induced head twitch response in mice, 5-HT2A antagonist given i.v. after LSD; assay type: in vivo, C57BL/6J mice; set-up: widely used to explore the effect of treatments on 5-HT2A receptors in vivo; from tissue; host or cells: whole living male C57BL/6J mice (behavioural read-out); settings: for head-twitch response (cumulative head-twitches): LSD 0.32 mg/kg i.p., monitored until 40 min after agonist dosing; for Result (LSD Combinations tested, summary): summary of Examples 1-17, antagonist administered after LSD
Excerpt: as §1
Male C57BL/6J mice (approximately 25 g) was group housed in stock room B20D of the Saretius animal at the University of Reading. […]
as §2, with “At T=−2” for “At T=−3”, “with LSD (0.32” for “with psilocybin (2”, “for 8” for “for 7”, “After 8” for “After 7”, “Cumulative head-twitch behavior was” for “Cumulative head-twitches were”
At T=−60 min, C57BL/6J mice were individually housed into transparent observation cages with bedding removed and left to habituate. At T=−2 min, mice were placed into heated cages at 40° C. At T=0 h, groups of 3 mice were dosed intraperitoneally with LSD (0.32 mg/kg).

[4] = biological target: T2, 5-HT2A receptors (Rattus norvegicus, UniProt P14842); settings: rats; 2,5-dimethoxy-4-iodoamphetamine (DOI); cited from earlier work
T2 construct: has also been reported to elicit head shakes in rats; host or cells: living rats (cited studies)
T2 sequence (P14842 whole entry): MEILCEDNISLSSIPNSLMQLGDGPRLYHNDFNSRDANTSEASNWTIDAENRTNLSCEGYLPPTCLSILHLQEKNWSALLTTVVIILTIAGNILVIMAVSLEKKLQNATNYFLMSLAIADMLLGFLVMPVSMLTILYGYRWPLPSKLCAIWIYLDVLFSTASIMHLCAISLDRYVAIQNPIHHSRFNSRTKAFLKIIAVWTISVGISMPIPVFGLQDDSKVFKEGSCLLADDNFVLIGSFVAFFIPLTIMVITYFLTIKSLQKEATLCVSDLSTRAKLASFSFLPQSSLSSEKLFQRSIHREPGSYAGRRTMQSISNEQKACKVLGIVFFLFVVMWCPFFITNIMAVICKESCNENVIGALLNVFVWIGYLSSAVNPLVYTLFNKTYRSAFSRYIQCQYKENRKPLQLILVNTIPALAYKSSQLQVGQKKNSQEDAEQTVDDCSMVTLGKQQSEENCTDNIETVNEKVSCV

[5] = biological target: T1, 5-HT2A receptors; set-up: head-twitches in mice (see Darmani et al., Pharmacol. Biochem. Behav., 1990); host or cells: living mice (cited study); settings: mice; 2,5-dimethoxy-4-iodoamphetamine (DOI); cited from earlier work
[6] = tested on: psilocybin induced head twitches in mice; settings: psilocybin 2 mg/kg i.p.; quetiapine 1 mg/kg i.v. after T=7 minutes; cumulative head twitches until 40 minutes
Protocol: Mice were dosed intraperitoneally with psilocybin (2 mg/kg) and head-twitch responses were continuously scored for 7 minutes. […] Cumulative head-twitch behavior was measured every 2 minutes until 40 minutes after agonist dosing.

[7] = antagonist 1 mg/kg i.v. after 7 min
[8] = antagonist 4 mg/kg i.v. after 7 min
[9] = antagonist administered after psilocybin
[10] = antagonist 1 mg/kg i.v. after 8 min

**Q.** With `CCN(CC)C(=O)[C@@H]1C=C2c3cccc4[nH]cc(c34)C[C@H]2N(C)C1` [LSD] as the compound, how does the duration of effects [1] read?
**A.** 12 h

**Q.** What does the source list for `O=c1[nH]c2ccccc2n1CCN1CCN(c2cccc(C(F)(F)F)c2)CC1` [flibanserin]?
**A.** head-twitch response (cumulative head-twitches) [2, 7]: partially suppressed; head-twitch response (cumulative head-twitches) [2, 8]: partially suppressed; Result (Psilocybin Combinations tested, summary) [2, 9]: partial suppression; Result (Psilocybin Combinations tested, summary) ([2]; antagonist administered after psilocybin, listed as Flibanserin): Partial suppression of head twitch; head-twitch response (cumulative head-twitches) [3, 10]: partially suppressed; head-twitch response (cumulative head-twitches) ([3]; antagonist 4 mg/kg i.v. after 8 min): partially suppressed; Result (LSD Combinations tested, summary) [3]: partial suppression; Result (LSD Combinations tested, summary) ([3]; listed as Flibanserin): Partial suppression of head twitch

**Q.** Which results are given for `N#Cc1c[nH]c2c(C(=O)N3CCN(CCc4ccc(F)cc4)CC3)cccc12` [pruvanserin]?
**A.** head-twitch response (cumulative head-twitches) [2, 7]: completely suppressed; Result (Psilocybin Combinations tested, summary) [2, 9]: full ending; Result (Psilocybin Combinations tested, summary) ([2]; antagonist administered after psilocybin, listed as Pruvanserin): Full suppression of head twitch; head-twitch response (cumulative head-twitches) [3, 10]: completely suppressed; Result (LSD Combinations tested, summary) [3]: full suppression; Result (LSD Combinations tested, summary) ([3]; listed as Pruvanserin): Full suppression of head twitch

**Q.** With `O=C(c1ccc(F)cc1)C1CCN(CCn2c(=O)[nH]c3ccccc3c2=O)CC1` [ketanserin] as the compound, how does the DOI-elicited head shakes [4] read?
**A.** blocked

**Q.** And the DOI-elicited head-twitches [5]?
**A.** blocked

**Q.** And the “head-twitch response (cumulative head-twitches)” value ([2]; antagonist 2 mg/kg i.v. after 7 min)?
**A.** completely suppressed

**Q.** What about the “head-twitch response (cumulative head-twitches)” value ([3]; antagonist 2 mg/kg i.v. after 8 min) of the same compound?
**A.** completely suppressed

**Q.** For `OCCOCCN1CCN(C2=Nc3ccccc3Sc3ccccc32)CC1` [quetiapine], which head-twitch response [6] is on record?
**A.** completely suppressed

**Q.** For `COc1ccc(NC(=O)Nc2ccc(F)cc2F)cc1-c1c(Br)cnn1C` [nelotanserin], which “head-twitch response (cumulative head-twitches)” value [2, 7] is on record?
**A.** partially suppressed

**Q.** And the “head-twitch response (cumulative head-twitches)” value [2, 8]?
**A.** completely suppressed; also recorded: completed suppressed

**Q.** What about the “Result (Psilocybin Combinations tested, summary)” value [2, 9] of the same compound?
**A.** partial suppression

**Q.** What about the “Result (Psilocybin Combinations tested, summary)” value ([2]; antagonist administered after psilocybin, listed as Nelotanserin) of the same compound?
**A.** Partial suppression of head twitch,

**Q.** What about the “Result (Psilocybin Combinations tested, summary)” value ([2]; at high dose) of the same compound?
**A.** full suppression at high dose

**Q.** What about the “head-twitch response (cumulative head-twitches)” value [3, 10] of the same compound?
**A.** partially suppressed

**Q.** And the “Result (LSD Combinations tested, summary)” value [3]?
**A.** partial suppression

**Q.** And the “Result (LSD Combinations tested, summary)” value ([3]; listed as Nelotanserin)?
**A.** Partial suppression of head twitch

**Q.** For `COc1cccc([C@H](O)C2CCN(CCc3ccc(F)cc3)CC2)c1OC` [volinanserin], which “head-twitch response (cumulative head-twitches)” value [2, 7] is on record?
**A.** completely suppressed

**Q.** What about the “Result (Psilocybin Combinations tested, summary)” value [2, 9] of the same compound?
**A.** full ending

**Q.** What about the “Result (Psilocybin Combinations tested, summary)” value ([2]; antagonist administered after psilocybin, listed as Volinanserin) of the same compound?
**A.** Full suppression of head twitch

**Q.** And the “head-twitch response (cumulative head-twitches)” value ([3]; antagonist 1 mg/kg i.v. after 5 min)?
**A.** completely suppressed

**Q.** And the “head-twitch response (cumulative head-twitches)” value [3, 10]?
**A.** completely suppressed

**Q.** What about the “head-twitch response (cumulative head-twitches)” value ([3]; antagonist 1 mg/kg i.v. after 10 min) of the same compound?
**A.** completely suppressed

**Q.** What about the “Result (LSD Combinations tested, summary)” value [3] of the same compound?
**A.** full suppression

**Q.** For `Cc1nc2sccn2c(=O)c1CCN1CCC(=C(c2ccc(F)cc2)c2ccc(F)cc2)CC1` [ritanserin], which “head-twitch response (cumulative head-twitches)” value [2, 7] is on record?
**A.** completely suppressed

**Q.** What about the “Result (Psilocybin Combinations tested, summary)” value [2, 9] of the same compound?
**A.** full ending

**Q.** What about the “Result (Psilocybin Combinations tested, summary)” value ([2]; antagonist administered after psilocybin, listed as Ritanserin) of the same compound?
**A.** Full suppression of head twitch

**Q.** What about the “head-twitch response (cumulative head-twitches)” value [3, 10] of the same compound?
**A.** partially suppressed

**Q.** And the “Result (LSD Combinations tested, summary)” value [3]?
**A.** full suppression

**Q.** And the “Result (LSD Combinations tested, summary)” value ([3]; listed as Ritanserin)?
**A.** Full suppression of head twitch
